Measured values reported in patent publication US10457710B2, “Antimicrobial peptides, their variants and uses” (priority 2015, dated 2019).
Where a SMILES comes first, the peptide text is derived from it. [ ]: non-standard residue; d: D form.

Legend:
Type in all cases: cell-based
[1] = test system: clinical strains of P. aeruginosa; test: MIC, microdilution, clinical strains; details: 0.02% BSA, 0.2% acetic acid
Protocol: (§1) Minimum inhibition concetrations (MICs) were determined against Escherichia coli (ATCC 25922), Staphylococcus aureus (ATCC 25923), Klebsiella pneumoniae (ATCC 10031) and Pseudomonas aeruginosa (ATCC 27853). Also clinical strains of E. coli, K. pneumoniae, E. cloacae, P. aeruginosa, Serratia marcescens, Proteus mirabilis, S. pneumoniae, Acinetobacter baumannii, A. johnsonii and S. aureus were used for MICs assays. Additionally, clinical strains of yeast including Candida albicans, C. glabrata, C. parapsilosis and C. quillermondiae were used. The susceptibility of these microorganisms to Chain peptides were determined using micro broth dilution assay. Colonies of the respective microorganism from Muller Hinton (MH) agar plates incubated overnight were suspended in MH broth media and final concentration of microorganism was adjusted to 5.0×10^5 cfu/ml. An aliquot of 10 μl of each Chain peptide, or gentamicin, tetracycline as reference antibiotics were added in differing concentrations along with 90 μl of bacterial suspension to 96 well polypropylene plates and incubated at 37° C. for 20 to 24 hours. Concentrations of Chain peptides and reference antibiotics ranged from 0.125 to 128 μg/ml and the MICs were recorded as the lowest concentration with no visual growth of bacteria. Similarly, antifungal MICs were tested in Potato dextrose broth.
(§2) Clinical strains of yeasts including Candida albicans, C. glabrata, C. parapsilosis and C. quillermondiae were also tested with the 12 Chain peptides. The minimum inhibitory concentration (MICs) varied between these peptides and are presented in Tables 4a, 4b, 4c and 5a, 5b, 5c. Peptides Chain 105, 201 and 308 are broad spectrum antimicrobials with MICs between 0.5-32 μg/ml against all the bacteria and yeasts tested, except Serratia marcescens and Proteus mirabilis, against which the MICs were between 64-128 μg/ml. Peptide Chain 306 has narrow spectrum activity against E. coli at 1 μg/ml and for the rest of the bacterial strains at >32 μg/ml (FIG. 10c).

[2] = test system: clinical strains of E. coli; test: MIC, microdilution, clinical strains; details: microdilution, Muller Hinton broth-cation adjusted, 0.02% BSA, 0.2% acetic acid
Protocol: as §1, §2

[3] = test system: clinical strains of K. pneumoniae; test: MIC, microdilution, clinical strains; details: 0.02% BSA, 0.2% acetic acid
Protocol: as §1, §2

[4] = test system: clinical strains of E. cloacae; test: MIC, microdilution, clinical strains; details: 0.02% BSA, 0.2% acetic acid
Protocol: as §1, §2

[5] = test system: clinical strains of S. aureus; test: MIC, microdilution, clinical strains; details: 0.02% BSA, 0.2% acetic acid
Protocol: as §1, §2

[6] = test system: clinical strains of Proteus mirabilis; test: MIC, microdilution, clinical strains; details: 0.02% BSA, 0.2% acetic acid
Protocol: as §1, §2

[7] = test system: clinical strains of Serratia marcescens; test: MIC, microdilution, clinical strains; details: 0.02% BSA, 0.2% acetic acid
Protocol: as §1, §2

[8] = test system: clinical strains of S. pneumoniae; test: MIC, microdilution, clinical strains; details: 0.02% BSA, 0.2% acetic acid
Protocol: as §1, §2

C. glabrata = test: MIC, clinical yeast strains
Protocol: as §1, §2

C. parapsilosis = test: MIC, clinical yeast strains
Protocol: as §1, §2

Candida albicans = test: MIC, clinical yeast strains
Protocol: as §1, §2

C. quillermondiae = test: MIC, clinical yeast strains; parameters: Minimum inhibitory concentration: unit: μg/ml; details: C. quillermondiae clinical yeast strain 1
Protocol: as §1, §2

[9] = Pseudomonas aeruginosa strain 1, Muller Hinton broth-cation adjusted
[10] = Pseudomonas aeruginosa strain 2, Muller Hinton broth-cation adjusted
[11] = Pseudomonas aeruginosa strain 3, Muller Hinton broth-cation adjusted
[12] = Pseudomonas aeruginosa strain 4, Muller Hinton broth-cation adjusted
[13] = Pseudomonas aeruginosa strain 5, Muller Hinton broth-cation adjusted
[14] = Klebsiella pneumoniae strain 1, Muller Hinton broth-cation adjusted
[15] = Klebsiella pneumoniae strain 2, Muller Hinton broth-cation adjusted
[16] = Klebsiella pneumoniae strain 3, Muller Hinton broth-cation adjusted
[17] = Klebsiella pneumoniae strain 4, Muller Hinton broth-cation adjusted
[18] = Klebsiella pneumoniae strain 5, Muller Hinton broth-cation adjusted
[19] = Enterobacter cloacae strain 1, Muller Hinton broth-cation adjusted
[20] = Enterobacter cloacae strain 2, Muller Hinton broth-cation adjusted
[21] = Enterobacter cloacae strain 3, Muller Hinton broth-cation adjusted
[22] = Enterobacter cloacae strain 4, Muller Hinton broth-cation adjusted
[23] = Enterobacter cloacae strain 5, Muller Hinton broth-cation adjusted
[24] = Staphylococcus aureus strain 1, Muller Hinton broth-cation adjusted
[25] = Staphylococcus aureus strain 2, Muller Hinton broth-cation adjusted
[26] = Staphylococcus aureus strain 3, Muller Hinton broth-cation adjusted
[27] = Staphylococcus aureus strain 4, Muller Hinton broth-cation adjusted
[28] = Staphylococcus aureus strain 5, Muller Hinton broth-cation adjusted
[29] = Proteus mirabilis strain 1, Muller Hinton broth-cation adjusted
[30] = Proteus mirabilis strain 2, Muller Hinton broth-cation adjusted
[31] = Proteus mirabilis strain 3, Muller Hinton broth-cation adjusted
[32] = Proteus mirabilis strain 4, Muller Hinton broth-cation adjusted
[33] = Proteus mirabilis strain 5, Muller Hinton broth-cation adjusted
[34] = Serratia marcescens strain 1, Muller Hinton broth-cation adjusted
[35] = Serratia marcescens strain 2, Muller Hinton broth-cation adjusted
[36] = Serratia marcescens strain 3, Muller Hinton broth-cation adjusted
[37] = Serratia marcescens strain 4, Muller Hinton broth-cation adjusted
[38] = Serratia marcescens strain 5, Muller Hinton broth-cation adjusted
[39] = Streptococcus pneumoniae strain 1, Muller Hinton broth-cation adjusted
[40] = Streptococcus pneumoniae strain 2, Muller Hinton broth-cation adjusted
[41] = Streptococcus pneumoniae strain 3, Muller Hinton broth-cation adjusted
[42] = Streptococcus pneumoniae strain 4, Muller Hinton broth-cation adjusted
[43] = Streptococcus pneumoniae strain 5, Muller Hinton broth-cation adjusted
[44] = C. glabrata clinical yeast strain 1
[45] = C. glabrata clinical yeast strain 2
[46] = C. glabrata clinical yeast strain 3
[47] = C. glabrata clinical yeast strain 4
[48] = C. parapsilosis clinical yeast strain 1
[49] = C. parapsilosis clinical yeast strain 2
[50] = C. parapsilosis clinical yeast strain 3
[51] = C. parapsilosis clinical yeast strain 4
[52] = Candida albicans clinical yeast strain 1
[53] = Candida albicans clinical yeast strain 2
[54] = Candida albicans clinical yeast strain 3
[55] = Candida albicans clinical yeast strain 4
[56] = Candida albicans clinical yeast strain 5

CC(C)C[C@@H](NC(=O)[C@H](N)CCCNC(=N)N)C(=O)N[C@H](CCCCN)C(=O)N[C@H](Cc1c[nH]c2ccccc12)C(=O)N[C@H](Cc1ccccc1)C(=O)N[C@H](Cc1c[nH]c2ccccc12)C(=O)N[C@H](CC(C)C)C(=O)N[C@H](Cc1ccccc1)C(=O)N[C@H](CCCNC(=N)N)C(=O)N[C@H](CCCCN)C(=O)N[C@H](CCCNC(=N)N)C(=O)O [Chain307D] (H-[dR][dL][dK][dW][dF][dW][dL][dF][dR][dK][dR]-OH)
Minimum inhibitory concentration [1, 9]: 16 | Minimum inhibitory concentration [1, 10]: 16 | Minimum inhibitory concentration [1, 11]: 16 | Minimum inhibitory concentration [1, 12]: 8 | Minimum inhibitory concentration [1, 13]: 8 | Minimum inhibitory concentration ([2]; Escherichia coli strain 1): 4 | Minimum inhibitory concentration ([2]; Escherichia coli strain 2): 4 | Minimum inhibitory concentration ([2]; Escherichia coli strain 3): 4 | Minimum inhibitory concentration ([2]; Escherichia coli strain 4): 2 | Minimum inhibitory concentration ([2]; Escherichia coli strain 5): 4 | Minimum inhibitory concentration [3, 14]: 8 | Minimum inhibitory concentration [3, 15]: 8 | Minimum inhibitory concentration [3, 16]: 16 | Minimum inhibitory concentration [3, 17]: 16 | Minimum inhibitory concentration [3, 18]: 4 | Minimum inhibitory concentration [4, 19]: 4 | Minimum inhibitory concentration [4, 20]: 8 | Minimum inhibitory concentration [4, 21]: 4 | Minimum inhibitory concentration [4, 22]: 4 | Minimum inhibitory concentration [4, 23]: 4 | Minimum inhibitory concentration [5, 24]: 2 | Minimum inhibitory concentration [5, 25]: 2 | Minimum inhibitory concentration [5, 26]: 2 | Minimum inhibitory concentration [5, 27]: 2 | Minimum inhibitory concentration [5, 28]: 2 | Minimum inhibitory concentration [6, 29]: >128 | Minimum inhibitory concentration [6, 30]: 128 | Minimum inhibitory concentration [6, 31]: 128 | Minimum inhibitory concentration [6, 32]: >128 | Minimum inhibitory concentration [6, 33]: >128 | Minimum inhibitory concentration [7, 34]: >128 | Minimum inhibitory concentration [7, 35]: >128 | Minimum inhibitory concentration [7, 36]: 128 | Minimum inhibitory concentration [7, 37]: >128 | Minimum inhibitory concentration [7, 38]: >128 | Minimum inhibitory concentration [8, 39]: 4 | Minimum inhibitory concentration [8, 40]: 4 | Minimum inhibitory concentration [8, 41]: 4 | Minimum inhibitory concentration [8, 42]: 2 | Minimum inhibitory concentration [8, 43]: 2 | Minimum inhibitory concentration (C. glabrata; [44]): 8 | Minimum inhibitory concentration (C. glabrata; [45]): 16 | Minimum inhibitory concentration (C. glabrata; [46]): 8 | Minimum inhibitory concentration (C. glabrata; [47]): 16 | Minimum inhibitory concentration (C. parapsilosis; [48]): 16 | Minimum inhibitory concentration (C. parapsilosis; [49]): 8 | Minimum inhibitory concentration (C. parapsilosis; [50]): 8 | Minimum inhibitory concentration (C. parapsilosis; [51]): 8 | Minimum inhibitory concentration (Candida albicans; [52]): 16 | Minimum inhibitory concentration (Candida albicans; [53]): 16 | Minimum inhibitory concentration (Candida albicans; [54]): 16 | Minimum inhibitory concentration (Candida albicans; [55]): 16 | Minimum inhibitory concentration (Candida albicans; [56]): 16 | Minimum inhibitory concentration (C. quillermondiae): 4

CC(C)C[C@@H](NC(=O)[C@@H](Cc1c[nH]c2ccccc12)NC(=O)[C@@H](Cc1ccccc1)NC(=O)[C@@H](Cc1c[nH]c2ccccc12)NC(=O)[C@@H](CCCCN)NC(=O)[C@@H](CCCNC(=N)N)NC(=O)[C@H](N)Cc1c[nH]c2ccccc12)C(=O)N[C@H](Cc1ccccc1)C(=O)N[C@H](CCCCN)C(=O)N[C@H](CCCCN)C(=O)N[C@H](CCCNC(=N)N)C(=O)O [Chain309D] (H-[dW][dR][dK][dW][dF][dW][dL][dF][dK][dK][dR]-OH)
Minimum inhibitory concentration [1, 9]: 16 | Minimum inhibitory concentration [1, 10]: 32 | Minimum inhibitory concentration [1, 11]: 16 | Minimum inhibitory concentration [1, 12]: 32 | Minimum inhibitory concentration [1, 13]: 8 | Minimum inhibitory concentration ([2]; Escherichia coli strain 1): 0.5 | Minimum inhibitory concentration ([2]; Escherichia coli strain 2): 32 | Minimum inhibitory concentration ([2]; Escherichia coli strain 3): 16 | Minimum inhibitory concentration ([2]; Escherichia coli strain 4): 32 | Minimum inhibitory concentration ([2]; Escherichia coli strain 5): 16 | Minimum inhibitory concentration [3, 14]: 128 | Minimum inhibitory concentration [3, 15]: 32 | Minimum inhibitory concentration [3, 16]: >128 | Minimum inhibitory concentration [3, 17]: 32 | Minimum inhibitory concentration [3, 18]: 128 | Minimum inhibitory concentration [4, 19]: >128 | Minimum inhibitory concentration [4, 20]: 128 | Minimum inhibitory concentration [4, 21]: 64 | Minimum inhibitory concentration [4, 22]: 64 | Minimum inhibitory concentration [4, 23]: 32 | Minimum inhibitory concentration [5, 24]: 8 | Minimum inhibitory concentration [5, 25]: 16 | Minimum inhibitory concentration [5, 26]: 8 | Minimum inhibitory concentration [5, 27]: 8 | Minimum inhibitory concentration [5, 28]: 8 | Minimum inhibitory concentration [6, 29]: >128 | Minimum inhibitory concentration [6, 30]: >128 | Minimum inhibitory concentration [6, 31]: >128 | Minimum inhibitory concentration [6, 32]: >128 | Minimum inhibitory concentration [6, 33]: >128 | Minimum inhibitory concentration [7, 34]: >128 | Minimum inhibitory concentration [7, 35]: >128 | Minimum inhibitory concentration [7, 36]: >128 | Minimum inhibitory concentration [7, 37]: >128 | Minimum inhibitory concentration [7, 38]: >128 | Minimum inhibitory concentration [8, 39]: 64 | Minimum inhibitory concentration [8, 40]: 64 | Minimum inhibitory concentration [8, 41]: 64 | Minimum inhibitory concentration [8, 42]: 64 | Minimum inhibitory concentration [8, 43]: 64 | Minimum inhibitory concentration (C. glabrata; [44]): 32 | Minimum inhibitory concentration (C. glabrata; [45]): 64 | Minimum inhibitory concentration (C. glabrata; [46]): 4 | Minimum inhibitory concentration (C. glabrata; [47]): 128 | Minimum inhibitory concentration (C. parapsilosis; [48]): 64 | Minimum inhibitory concentration (C. parapsilosis; [49]): 64 | Minimum inhibitory concentration (C. parapsilosis; [50]): 32 | Minimum inhibitory concentration (C. parapsilosis; [51]): 16 | Minimum inhibitory concentration (Candida albicans; [52]): 32 | Minimum inhibitory concentration (Candida albicans; [53]): 32 | Minimum inhibitory concentration (Candida albicans; [54]): 16 | Minimum inhibitory concentration (Candida albicans; [55]): 16 | Minimum inhibitory concentration (Candida albicans; [56]): 32 | Minimum inhibitory concentration (C. quillermondiae): 8
